This note sets out measurements from ChEMBL document CHEMBL4706735, “Novel Pyrazolo[3,4-b]pyrazines as SHP2 Inhibitors for Treating Cancer” (ACS Med Chem Lett, 2021).

The structures appear in SMILES notation.

The experiment is described as follows: Inhibition of ERK phosphorylation in human HCC827 cells incubated for 30 mins in serum free medium measured by sandwich ELISA. Conditions: HCC827, 0.5 h. The format is cell-based.
By IC50 is commonly meant the concentration needed to halve the response being measured. High values mean weaker potency in that assay, low ones greater potency in that assay. The compound `COc1cnc2ccc(-c3n[nH]c4nc(N5CCC6(CC5)CO[C@@H](C)[C@H]6N)c(CO)nc34)c(Cl)c2n1` yielded a half-maximal inhibitory concentration (IC50) of 8.4 nM.

`C[C@@H]1OCC2(CCN(c3nc4[nH]nc(-c5ccc6nn(C)c(Cl)c6c5Cl)c4nc3CO)CC2)[C@@H]1N`: the concentration for half-maximal inhibition (IC50) turned out to be 3.6 nM. The same measure for `Cn1nc2ccc(-c3n[nH]c4nc(N5CCC6(CC5)CC(F)(F)C[C@H]6N)c(CO)nc34)c(Cl)c2c1Cl`: 6.2 nM; for `Cn1cc2c(Cl)c(-c3n[nH]c4nc(N5CCC6(CC5)CC(F)(F)C[C@H]6N)c(CO)nc34)ccc2n1`: 6.3 nM. For `C[C@@H]1OCC2(CCN(c3nc4[nH]nc(-c5cccc(Cl)c5F)c4nc3CO)CC2)[C@@H]1N` the value was 5.6 nM; for `Cn1nc2ccc(-c3n[nH]c4nc(N5CCC6(CC5)C[C@H](F)C[C@H]6N)c(CO)nc34)c(Cl)c2c1Cl`, 4.1 nM.
